# Positions count from the first letter of the chain named.
# Legend:
# Assay type in all cases: cell-based
# [1] = molecular target: T1, Peroxisome proliferator-activated receptor alpha (Homo sapiens, UniProt Q07869); assay: Transcriptional activation activity on human Peroxisome proliferator activated receptor alpha expressed in CHO-K1 cells
# T1 sequence (Q07869 whole entry): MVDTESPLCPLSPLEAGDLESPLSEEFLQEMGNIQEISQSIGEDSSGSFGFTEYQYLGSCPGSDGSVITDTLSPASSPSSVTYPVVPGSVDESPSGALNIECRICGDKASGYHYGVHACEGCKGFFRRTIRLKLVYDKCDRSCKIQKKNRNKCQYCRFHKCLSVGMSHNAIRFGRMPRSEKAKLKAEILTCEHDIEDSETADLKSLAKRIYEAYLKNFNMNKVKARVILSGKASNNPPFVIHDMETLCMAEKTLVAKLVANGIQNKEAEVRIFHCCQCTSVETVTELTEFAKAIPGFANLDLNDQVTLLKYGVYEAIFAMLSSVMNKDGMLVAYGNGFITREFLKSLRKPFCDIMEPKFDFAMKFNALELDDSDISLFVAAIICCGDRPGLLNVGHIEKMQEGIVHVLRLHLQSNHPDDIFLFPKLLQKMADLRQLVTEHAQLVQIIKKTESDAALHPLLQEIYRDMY
# [2] = tested on: Peroxisome proliferator-activated receptor alpha (Homo sapiens), Q07869 [UNDEFINED MUTATION]; assay: Ratio of transcriptional activation of I272F mutant compared to wild type PPAR-GAL4 chimeric receptors in CHO-K1 cells
# [3] = molecular target: Peroxisome proliferator-activated receptor alpha (Homo sapiens, UniProt Q07869, I272F); assay: Transcriptional activation activity on human I272F-mutant Peroxisome proliferator activated receptor alpha expressed in CHO-K1 cells
# Peroxisome proliferator-activated receptor alpha (Homo sapiens, UniProt Q07869, I272F), sequence (Q07869 whole entry I272F): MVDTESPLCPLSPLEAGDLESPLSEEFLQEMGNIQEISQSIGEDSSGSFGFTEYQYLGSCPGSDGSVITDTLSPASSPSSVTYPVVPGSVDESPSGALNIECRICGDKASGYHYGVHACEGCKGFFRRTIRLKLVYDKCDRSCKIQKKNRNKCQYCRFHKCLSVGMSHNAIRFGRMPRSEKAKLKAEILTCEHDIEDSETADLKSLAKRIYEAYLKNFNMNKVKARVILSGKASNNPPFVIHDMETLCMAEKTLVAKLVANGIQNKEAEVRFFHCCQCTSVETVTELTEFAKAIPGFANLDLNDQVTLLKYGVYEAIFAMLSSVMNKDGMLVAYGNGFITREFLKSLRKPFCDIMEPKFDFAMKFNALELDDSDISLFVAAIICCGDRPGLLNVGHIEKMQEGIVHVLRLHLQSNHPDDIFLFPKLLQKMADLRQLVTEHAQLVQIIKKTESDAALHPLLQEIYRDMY
# [4] = molecular target: Peroxisome proliferator-activated receptor alpha (Homo sapiens, UniProt Q07869, T279M); assay: Transcriptional activation activity on human T279M-mutant Peroxisome proliferator activated receptor alpha expressed in CHO-K1 cells
# Peroxisome proliferator-activated receptor alpha (Homo sapiens, UniProt Q07869, T279M), sequence (Q07869 whole entry T279M, the tested form may be a part): as the sequence (Q07869 whole entry I272F) above, with F272I, T279M counted along it
# [5] = tested on: Peroxisome proliferator-activated receptor alpha (Homo sapiens), Q07869 [UNDEFINED MUTATION]; assay: Ratio of transcriptional activation of T279M mutant compared to wild type PPAR-GAL4 chimeric receptors in CHO-K1 cells
# [6] = tested on: T2, Peroxisome proliferator-activated receptor alpha (Homo sapiens), Q07869 [I272F]; assay: Transcriptional activation activity on human I272F-mutant Peroxisome proliferator activated receptor alpha expressed in CHO-K1 cells at 10 uM
# T2 sequence (whole entry): T1 sequence (Q07869 whole entry) with I272F
EC50 [1] [µM],Ratio [2],EC50 [3] [µM],EC50 [4] [µM],Ratio [5],inhibition [6] [%],Compound
2.72,12.3,33.4,16.1,5.92,,CC[C@@H](Cc1ccc(OC)c(OCCc2ccc(C(F)(F)F)cc2)c1)C(=O)O
0.000615,108,0.667,0.014,2.28,,CC[C@@H](Cc1ccc(OC)c(C(=O)NCc2ccc(Oc3ccc(F)cc3)cc2)c1)C(=O)O
0.0803,,2.82,0.309,,,CC[C@@H](Cc1ccc(OC)c(C(=O)NCc2ccc(C(F)(F)F)cc2)c1)C(=O)O
3.38,,,11.4,3.37,30,CC[C@@H](Cc1ccc(OC)c(C(=O)NCc2ccccc2)c1)C(=O)O
